According to publication PMC6476959, “Novel 3,4-Dihydroisocoumarins Inhibit Human P-gp and BCRP in Multidrug Resistant Tumors and Demonstrate Substrate Inhibition of Yeast Pdr5” (Frontiers in Pharmacology, 2019):

Experiments:
[1] = tested on: P-gp expressing HCT-15 cells; experiment: Sensitization of HCT-15 cells to doxorubicin (co-treatment, cell viability); type: cell-based, human
Description: (§1) Cytotoxic activity of test compounds was analyzed after 48 h using the CellTiter-Glo Luminescent Cell Viability Assay published previously ([Weber et al., 2017]) in 384-well plates with the following cell densities: A549, MCF-7/MX: 2 × 10^3 cells/well; HCT-15: 3 × 10^3 cells/well; H69AR: 5 × 10^3 cells/well. Pipetting was conducted with the CyBi-Well 96-channel simultaneous pipettor (Analytik Jena AG, Jena, Germany). For generation of dose-response curves and calculation of IC50 values, the four-parameter logistic model was applied.
(§2) The ability of identified inhibitors of P-gp and BCRP to sensitize HCT-15 or MCF-7/MX cells to chemotherapy was analyzed by co-treatment with test compounds and doxorubicin or mitoxantrone, respectively. Cells were incubated with a serial dilution of the chemotherapeutic drug alone or in combination with fixed concentrations of the test compounds or positive controls (2.5 μM PSC833 and 1 μM Ko143, respectively). Fold change of drug IC50 was calculated with the formula IC50 (drug alone)/IC50 (drug with modulator).

[2] = tested on: HCT-15 cells; experiment: CellTiter-Glo cell viability assay (cytotoxicity), HCT-15; type: cell-based; conditions: Homo sapiens, 48 h, P-gp expressing, mean ± SEM
Description: (§3) The human lung adenocarcinoma cell line A549 was cultured in DMEM medium supplemented with 10% fetal bovine serum (FBS), 100 U/mL penicillin and 100 μg/mL streptomycin. P-gp-expressing human colon adenocarcinoma cells HCT-15 were cultured in RPMI 1640 medium supplemented with 10% FBS, 100 U/mL penicillin and 100 μg/mL streptomycin. BCRP-expressing MCF-7/MX human breast adenocarcinoma cells were cultured in DMEM medium supplemented with 10% FBS, 100 U/mL penicillin and 100 μg/mL streptomycin. MRP1-expressing H69AR human small cell lung cancer cells were cultured in RPMI 1640 medium (ATCC modification) supplemented with 20% FBS, 100 U/mL penicillin and 100 μg/mL streptomycin. All cancer cell lines employed have been systematically characterized regarding their respective ABC transporter expression profile ([Sachs et al., 2019]).
as §1

[3] = molecular target: T1, Pdr5 (Saccharomyces cerevisiae, UniProt P33302); experiment: Pdr5 ATPase assay (oligomycin-sensitive) in plasma membrane preparations; type: biochemical; conditions: highest concentrations (10 mM), in comparison to Pdr5 WT in the absence of any compound
T1 construct: effect on (A) the transport activity of Pdr5 WT and (B) their effect on the ATPase activity; made in house; host or cells: S. cerevisiae YRE1001 (pdr1-3 background), isolated plasma membranes
T1 sequence (P33302 whole entry): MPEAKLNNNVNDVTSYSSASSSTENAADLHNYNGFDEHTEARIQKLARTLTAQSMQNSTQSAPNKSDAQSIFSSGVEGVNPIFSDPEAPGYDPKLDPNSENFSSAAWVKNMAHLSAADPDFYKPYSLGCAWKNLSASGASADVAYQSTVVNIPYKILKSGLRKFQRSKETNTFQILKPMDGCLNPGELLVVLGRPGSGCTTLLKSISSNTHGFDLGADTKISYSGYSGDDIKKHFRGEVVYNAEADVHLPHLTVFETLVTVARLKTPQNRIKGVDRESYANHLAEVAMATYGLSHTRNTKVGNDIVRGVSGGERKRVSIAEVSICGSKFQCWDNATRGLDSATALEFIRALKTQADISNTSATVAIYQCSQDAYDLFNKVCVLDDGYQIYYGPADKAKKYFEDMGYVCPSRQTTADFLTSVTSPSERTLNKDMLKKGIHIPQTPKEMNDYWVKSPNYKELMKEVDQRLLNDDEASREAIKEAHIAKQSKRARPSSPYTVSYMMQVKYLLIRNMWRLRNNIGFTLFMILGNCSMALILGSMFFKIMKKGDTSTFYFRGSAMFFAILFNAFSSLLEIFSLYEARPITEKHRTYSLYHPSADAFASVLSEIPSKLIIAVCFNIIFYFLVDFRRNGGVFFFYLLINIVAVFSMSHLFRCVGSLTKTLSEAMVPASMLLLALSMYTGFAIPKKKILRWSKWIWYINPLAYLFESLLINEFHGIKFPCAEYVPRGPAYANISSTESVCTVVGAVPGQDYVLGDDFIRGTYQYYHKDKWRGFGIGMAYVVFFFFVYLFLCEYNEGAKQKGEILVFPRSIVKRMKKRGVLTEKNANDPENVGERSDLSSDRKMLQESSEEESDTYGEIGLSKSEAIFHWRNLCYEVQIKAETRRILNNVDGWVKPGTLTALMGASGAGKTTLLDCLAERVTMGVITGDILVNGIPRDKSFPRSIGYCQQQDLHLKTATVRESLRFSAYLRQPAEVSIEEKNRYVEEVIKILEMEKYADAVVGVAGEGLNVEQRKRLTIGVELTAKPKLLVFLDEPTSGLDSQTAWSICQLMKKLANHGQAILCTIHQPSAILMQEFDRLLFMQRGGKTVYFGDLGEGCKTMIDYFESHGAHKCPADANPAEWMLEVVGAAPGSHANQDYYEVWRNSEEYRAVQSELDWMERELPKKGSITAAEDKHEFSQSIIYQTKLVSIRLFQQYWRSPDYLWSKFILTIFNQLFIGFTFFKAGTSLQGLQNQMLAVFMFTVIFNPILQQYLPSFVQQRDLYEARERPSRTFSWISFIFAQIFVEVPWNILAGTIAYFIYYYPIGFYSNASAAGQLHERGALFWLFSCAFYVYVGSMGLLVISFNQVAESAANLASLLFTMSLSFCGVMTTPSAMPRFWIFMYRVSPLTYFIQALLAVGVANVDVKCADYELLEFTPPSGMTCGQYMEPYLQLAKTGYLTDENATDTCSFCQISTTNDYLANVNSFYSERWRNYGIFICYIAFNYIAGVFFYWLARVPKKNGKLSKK
Description: Saccharomyces cerevisiae cells expressing Pdr5 WT or the E1036Q (EQ) mutant were cultured to an OD600 of 1.5 in YPD-media at 25°C. The nitrogen source was replenished by addition of a 10th volume of 5x YP (50 g/l yeast extract, 100 g/l peptone). The cells were grown to an OD of 3.5 and harvested (5000 ×g at 4°C for 15 min). The isolation of Pdr5 containing PMs was performed as described ([Kolaczkowski et al., 1996]; [Ernst et al., 2008]).
Oligomycin (OM)-sensitive ATPase activity was measured from 0.8 μg PM containing Pdr5 incubated with 2 mM ATP, 5 mM MgCl2 in 270 mM TRIS-glycine buffer (pH 9.5) and 2.5 μl of the test compounds or DMSO as a control in a total volume of 100 μl. To reduce the background activities, 0.2 mM ammonium molybdate, 10 mM NaN3 and 50 mM KNO3, respectively, were added ([Dufour et al., 1988]; [Goffeau and Dufour, 1988]). In a second assay, OM (20 μg/ml) was added to an otherwise identical setup. After incubation at 30°C for 20 min, the reaction was stopped by adding 25 μl of the reaction to 175 μl 40 mM H2SO4. The amount of released inorganic phosphate was determined by a colometric assay in 96-well plates ([Goffeau and Dufour, 1988]; [Decottignies et al., 1994]; [Wada et al., 2002]). The difference of both assays ( ± OM) corresponds to the specific ATPase activity of Pdr5 ([Ernst et al., 2008]).

[4] = Solubility observation in transporter assays; type: physicochemical; conditions: could not be employed at 50 μM
[5] = tested on: A549 cells; experiment: CellTiter-Glo cell viability assay (cytotoxicity), A549; type: cell-based, human; conditions: Homo sapiens, A549; 48 h, mean ± SEM
Description: as §3, §1

[6] = molecular target: T2, BCRP (Homo sapiens, UniProt Q9UNQ0); experiment: BCRP transport assay (Hoechst 33342) in MCF-7/MX cells; type: cell-based
T2 construct: endogenous in cells; host or cells: MCF-7/MX human breast adenocarcinoma cells (mitoxantrone-selected)
T2 sequence (Q9UNQ0 1-655): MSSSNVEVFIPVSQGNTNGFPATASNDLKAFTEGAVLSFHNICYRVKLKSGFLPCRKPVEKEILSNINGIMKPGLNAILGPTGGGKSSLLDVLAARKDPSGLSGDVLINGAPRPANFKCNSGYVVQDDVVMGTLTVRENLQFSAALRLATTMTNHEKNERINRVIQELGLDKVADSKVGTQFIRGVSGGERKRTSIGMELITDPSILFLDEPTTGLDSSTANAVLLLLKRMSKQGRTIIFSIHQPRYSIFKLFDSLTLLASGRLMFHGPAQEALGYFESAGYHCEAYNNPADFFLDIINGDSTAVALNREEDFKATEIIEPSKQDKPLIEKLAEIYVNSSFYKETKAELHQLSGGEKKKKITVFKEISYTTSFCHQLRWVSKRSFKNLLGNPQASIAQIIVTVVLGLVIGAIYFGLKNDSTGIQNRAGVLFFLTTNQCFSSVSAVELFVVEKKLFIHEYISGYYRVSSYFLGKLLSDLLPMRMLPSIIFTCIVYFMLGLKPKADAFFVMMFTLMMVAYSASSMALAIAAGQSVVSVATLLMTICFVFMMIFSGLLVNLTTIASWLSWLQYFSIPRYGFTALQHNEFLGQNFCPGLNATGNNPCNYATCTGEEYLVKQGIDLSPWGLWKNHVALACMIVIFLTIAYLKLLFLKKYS
Description: Breast cancer resistance protein transport activity was determined in the BCRP-expressing MCF-7/MX cell line. Hoechst 33342 was applied as transporter substrate and 1 μM Ko143 as positive control or 0.5% DMSO as negative control and the assay was performed according to the P-gp assay. Fluorescence was measured at an excitation wavelength of 355 nm and emission wavelength of 460 nm. The transport activity of BCRP was analyzed by determining the plateau of the fluorescence-time curve by using non-linear regression (one-phase exponential fit). Normalization of the data to Ko143 (100% inhibition) and DMSO (0% inhibition) was performed.

[7] = molecular target: T3, P-gp (Homo sapiens, UniProt P08183); experiment: P-gp transport assay (calcein-AM) in HCT-15 cells; type: cell-based
T3 construct: endogenous in cells; host or cells: HCT-15 human colon adenocarcinoma cells
T3 sequence (P08183 whole entry): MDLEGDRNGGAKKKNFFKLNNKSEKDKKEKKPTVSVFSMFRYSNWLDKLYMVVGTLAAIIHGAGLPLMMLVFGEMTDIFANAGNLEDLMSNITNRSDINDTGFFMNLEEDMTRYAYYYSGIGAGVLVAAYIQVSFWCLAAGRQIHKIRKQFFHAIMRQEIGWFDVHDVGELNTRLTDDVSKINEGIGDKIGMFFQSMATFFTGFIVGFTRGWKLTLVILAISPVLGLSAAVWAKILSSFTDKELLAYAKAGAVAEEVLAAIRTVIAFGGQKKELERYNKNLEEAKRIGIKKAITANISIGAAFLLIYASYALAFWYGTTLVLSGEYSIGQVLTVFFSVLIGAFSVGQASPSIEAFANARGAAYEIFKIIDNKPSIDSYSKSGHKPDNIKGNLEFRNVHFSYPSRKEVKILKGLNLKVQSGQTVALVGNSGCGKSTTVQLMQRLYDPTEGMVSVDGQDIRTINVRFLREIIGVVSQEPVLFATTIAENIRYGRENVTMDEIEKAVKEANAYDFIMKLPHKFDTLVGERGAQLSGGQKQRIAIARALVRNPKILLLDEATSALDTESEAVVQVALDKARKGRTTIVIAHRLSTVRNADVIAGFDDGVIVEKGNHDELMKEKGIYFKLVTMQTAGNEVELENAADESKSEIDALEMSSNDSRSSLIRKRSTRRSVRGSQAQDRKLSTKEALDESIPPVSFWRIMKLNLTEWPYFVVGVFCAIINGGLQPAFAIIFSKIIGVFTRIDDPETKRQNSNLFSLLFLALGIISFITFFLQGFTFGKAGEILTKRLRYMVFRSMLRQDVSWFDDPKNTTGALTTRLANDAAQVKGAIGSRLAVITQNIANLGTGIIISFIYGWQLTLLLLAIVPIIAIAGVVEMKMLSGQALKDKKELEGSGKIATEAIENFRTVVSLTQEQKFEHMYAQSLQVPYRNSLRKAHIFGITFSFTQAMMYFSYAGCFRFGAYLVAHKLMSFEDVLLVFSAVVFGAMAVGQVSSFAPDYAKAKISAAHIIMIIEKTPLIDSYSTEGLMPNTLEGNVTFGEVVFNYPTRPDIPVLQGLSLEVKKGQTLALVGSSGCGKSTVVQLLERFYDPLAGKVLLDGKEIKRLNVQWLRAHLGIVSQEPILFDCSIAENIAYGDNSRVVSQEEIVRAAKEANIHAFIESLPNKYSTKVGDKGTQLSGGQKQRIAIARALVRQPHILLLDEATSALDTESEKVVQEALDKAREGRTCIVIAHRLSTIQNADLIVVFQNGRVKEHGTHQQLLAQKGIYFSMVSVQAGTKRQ
Description: The transport of calcein-AM by P-gp and its modulation by test compounds was analyzed in the P-gp-expressing HCT-15 cell line. 5 × 10^4 cells were seeded in black 96-well plates and incubated at 37°C and 5% CO2 for 24 h. The culture medium was removed and replaced by Hank’s balanced salt solution supplemented with 10 mM HEPES. Test compounds, 2.5 μM PSC833 (positive control) or 0.5% DMSO (negative control) were added in triplicates and incubated for 30 min at 37°C and 5% CO2. The substrate calcein-AM was added (final concentration 0.5 μM) and the fluorescence (excitation 485 nm, emission 520 nm) was measured over 3 h with the Infinite m1000 pro microplate reader (Tecan Group AG, Männedorf, Switzerland) at 37°C. The transport activity of P-gp was analyzed by determining the slope of the linear part of the fluorescence-time curve (0–30 min) using linear regression. Normalization of the data to PSC833 (100% inhibition) and DMSO (0% inhibition) was performed.

[8] = tested on: H69AR cells; experiment: CellTiter-Glo cell viability assay (cytotoxicity), H69AR; type: cell-based; conditions: Homo sapiens, 48 h, MRP1-expressing, mean ± SEM
Description: as §3, §1

[9] = tested on: MCF-7/MX cells; experiment: CellTiter-Glo cell viability assay (cytotoxicity), MCF-7/MX; type: cell-based; conditions: Homo sapiens, MCF7/MX; 48 h, BCRP-expressing, mean ± SEM
Description: as §3, §1

[10] = tested on: BCRP-expressing MCF-7/MX cells; experiment: Sensitization of MCF-7/MX cells to mitoxantrone (co-treatment, cell viability); type: cell-based, human
Description: as §1, §2

Which IC50 ([1]; Homo sapiens, HCT-15, doxorubicin alone, 48 h) does the source give for `COc1cccc2c1C(=O)c1c(O)c3c(c(O)c1C2=O)C[C@@](O)(C(=O)CO)C[C@@H]3O[C@H]1C[C@H](N)[C@H](O)[C@H](C)O1` [Doxorubicin, doxorubicin, reference compound] here?
The IC50 was 8.5 ± 0.7 µM.

And the “Fold change of doxorubicin IC50” value ([1]; doxorubicin alone (reference))?
Its value is 1.00.

With `O=c1oc2c(O)c(O)cc3c(=O)oc4c(O)c(O)cc1c4c23` [Ellagic acid, ellagic acid] as the molecule, how does the IC50 [2] read?
Its IC50 is greater than 50 µM.

What about the “ATPase activity of Pdr5 WT inhibited to (initial screen)” value [3] of the same molecule?
Its value is 56%.

And the “ATPase activity of Pdr5 WT inhibited to (initial screen)” value ([3]; listed as ellagic acid)?
The value was 50%.

What about the “Solubility (in words)” value [4] of the same molecule?
Its value is “low solubility”.

What about the IC50 [5] of the same molecule?
The IC50 was greater than 50 µM.

And the “Inhibition of BCRP (in words)” value [6]?
The value was “did not display any inhibitory activity”.

What about the “Inhibition of P-gp (in words)” value [7] of the same molecule?
Its value is “did not display any inhibitory activity”.

And the IC50 [8]?
Its IC50 is greater than 50 µM.

What about the IC50 [9] of the same molecule?
Its IC50 is greater than 50 µM.

For `O=C1c2c(O)ccc(O)c2C(=O)c2c(NCCNCCO)ccc(NCCNCCO)c21` [Mitoxantrone, mitoxantrone, reference compound], which IC50 ([10]; Homo sapiens, MCF7/MX, mitoxantrone alone, 48 h) is on record?
Its IC50 is 19.6 ± 2.4 µM.

And the “Fold change of mitoxantrone IC50” value ([10]; mitoxantrone alone (reference))?
Its value is 1.00.
